# Data: US9695155B2, “Herbicidal substituted pyrimidinyloxy benzene compounds” (E. I. DU PONT DE NEMOURS AND COMPANY, priority 2013, dated 2017)
# Experiments:
# [1] = test system: giant foxtail; experiment: Test A preemergence; type: in vivo, Setaria faberii
# How it was run: (§1)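 Scoring: eye-based comparison with untreated controls, 0 for no effect through 100 for complete control, at about day 10. Treatments: directed soil spray preemergence; foliar spray postemergence on 2–10 cm plants at the one- to two-leaf stage. Medium: loam soil with sand.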
# [2] = test system: pigweed; experiment: Test A preemergence; type: in vivo, Amaranthus retroflexus
# How it was run: as §1
# [3] = test system: velvetleaf; experiment: Test A postemergence; type: in vivo, Abutilon theophrasti; details: 0 to 100 scale where 0 is no effect and 100 is complete control
# How it was run: as §1
# [4] = test system: rice; experiment: Test B flooded paddy test; type: in vivo, Oryza sativa; details: Flood, 250 g ai/ha; 0 to 100 scale where 0 is no effect and 100 is complete control
# How it was run: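 Seedlings are raised to two leaves, flooded to a depth of 3 cm and dosed by adding the compound to the floodwater. Water level is kept constant, and plants are scored visually versus controls 13–15 days later (0 = no effect, 100 = complete control).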
# [5] = test system: giant foxtail; experiment: Test C preemergence; type: in vivo, Setaria faberii; details: for Foxtail, Giant plant response rating: preemergence, scale 0 (no effect) to 100 (complete control)
# How it was run: (§2)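 Seeds are planted in blended loam soil and sand and treated preemergence, while seedlings in a peat moss/vermiculite medium receive postemergence sprays at 2 to 18 cm height. All plants stay in the greenhouse for 13 to 15 days before visual comparison with controls on a 0–100 scale.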
# [6] = test system: yellow nutsedge; experiment: Test C preemergence; type: in vivo, Cyperus esculentus; details: for Nutsedge, Yellow plant response rating: preemergence, scale 0 (no effect) to 100 (complete control)
# How it was run: as §2
# [7] = test system: pigweed; experiment: Test C preemergence; type: in vivo, Amaranthus retroflexus; details: for Pigweed plant response rating: preemergence, scale 0 (no effect) to 100 (complete control)
# How it was run: as §2
# [8] = test system: barnyardgrass; experiment: Test C preemergence; type: in vivo, Echinochloa crus-galli; details: for Barnyardgrass plant response rating: preemergence, scale 0 (no effect) to 100 (complete control)
# How it was run: as §2
# [9] = test system: Italian ryegrass; experiment: Test C postemergence; type: in vivo, Lolium multiflorum; details: for Plant response rating (0 to 100), Ryegrass, Italian: postemergence; for Plant response rating, Ryegrass, Italian: Postemergence, scale 0 to 100 (0 no effect, 100 complete control)
# How it was run: as §2
# [10] = test system: wheat, winter; experiment: Test C postemergence; type: in vivo, Triticum aestivum; details: for Plant response rating (0 to 100), Wheat: postemergence; for Plant response rating, Wheat: Postemergence, scale 0 to 100 (0 no effect, 100 complete control)
# How it was run: as §2
# [11] = test system: galium; experiment: Test C postemergence; type: in vivo, Galium aparine; details: for Plant response rating (0 to 100), Galium: postemergence; for Plant response rating, Galium: Postemergence, scale 0 to 100 (0 no effect, 100 complete control)
# How it was run: as §2
# [12] = test system: corn; experiment: Test C postemergence; type: in vivo, Zea mays; details: for Plant response rating (0 to 100), Corn: postemergence; for Plant response rating, Corn: Postemergence, scale 0 to 100 (0 no effect, 100 complete control)
# How it was run: as §2
# [13] = test system: yellow nutsedge; experiment: Test C postemergence; type: in vivo, Cyperus esculentus; details: for Plant response rating (0 to 100), Nutsedge, Yellow: postemergence; for Plant response rating, Nutsedge, Yellow: Postemergence, scale 0 to 100 (0 no effect, 100 complete control)
# How it was run: as §2
# [14] = test system: barnyardgrass; experiment: Test C postemergence; type: in vivo, Echinochloa crus-galli; details: for Plant response rating (0 to 100), Barnyardgrass: postemergence; for Plant response rating, Barnyardgrass: Postemergence, scale 0 to 100 (0 no effect, 100 complete control)
# How it was run: as §2
# [15] = test system: kochia; experiment: Test C postemergence; type: in vivo, Kochia scoparia; details: for Plant response rating (0 to 100), Kochia: postemergence; for Plant response rating, Kochia: Postemergence, scale 0 to 100 (0 no effect, 100 complete control)
# How it was run: as §2
# [16] = 125 g ai/ha, 0 to 100 scale where 0 is no effect and 100 is complete control
# [17] = 500 g ai/ha, 0 to 100 scale, 0 no effect, 100 complete control, approx. 10 days
# [18] = Preemergence, 31 g ai/ha, scale 0 to 100, 0 no effect, 100 complete control
compound,measurement,setting,value
N#Cc1cccc(Oc2ncc(F)cn2)c1-n1cc(Cl)cn1 [Compound 73],"Plant response rating, Foxtail, Giant",[1]; [16],100
same,"Foxtail, Giant plant response rating",[1]; [17],100
same,"Plant response rating, Pigweed",[2]; [16],100
same,Pigweed plant response rating,[2]; [17],100
same,"Plant response rating, Velvetleaf",[3]; 125 g ai/ha,100
same,"Plant response rating, Velvetleaf",[3]; 500 g ai/ha,100
same,"Plant response rating, Rice",[4],0
same,"Foxtail, Giant plant response rating",[5]; 62 g ai/ha,100
same,"Foxtail, Giant plant response rating",[5]; 125 g ai/ha,100
same,"Foxtail, Giant plant response rating",[5]; 250 g ai/ha,100
same,"Plant response rating, Foxtail, Giant",[5]; [18],85
same,"Nutsedge, Yellow plant response rating",[6]; 62 g ai/ha,0
same,"Nutsedge, Yellow plant response rating",[6]; 125 g ai/ha,5
same,"Nutsedge, Yellow plant response rating",[6]; 250 g ai/ha,15
same,"Plant response rating, Nutsedge, Yellow",[6]; [18],0
same,Pigweed plant response rating,[7]; 62 g ai/ha,100
same,Pigweed plant response rating,[7]; 125 g ai/ha,100
same,Pigweed plant response rating,[7]; 250 g ai/ha,100
same,"Plant response rating, Pigweed",[7]; [18],100
same,Barnyardgrass plant response rating,[8]; 62 g ai/ha,80
same,Barnyardgrass plant response rating,[8]; 125 g ai/ha,100
same,Barnyardgrass plant response rating,[8]; 250 g ai/ha,100
same,"Plant response rating, Barnyardgrass",[8]; [18],60
same,"Plant response rating (0 to 100), Ryegrass, Italian",[9]; 125 g ai/ha,0
same,"Plant response rating (0 to 100), Ryegrass, Italian",[9]; 250 g ai/ha,5
same,"Plant response rating, Ryegrass, Italian","[9]; 31 g ai/ha, 13 to 15 days",0
same,"Plant response rating, Ryegrass, Italian",[9]; 62 g ai/ha,0
same,"Plant response rating (0 to 100), Wheat",[10]; 125 g ai/ha,0
same,"Plant response rating (0 to 100), Wheat",[10]; 250 g ai/ha,5
same,"Plant response rating, Wheat","[10]; 31 g ai/ha, 13 to 15 days",0
same,"Plant response rating, Wheat",[10]; 62 g ai/ha,0
same,"Plant response rating (0 to 100), Galium",[11]; 125 g ai/ha,70
same,"Plant response rating (0 to 100), Galium",[11]; 250 g ai/ha,70
same,"Plant response rating, Galium","[11]; 31 g ai/ha, 13 to 15 days",40
same,"Plant response rating, Galium",[11]; 62 g ai/ha,55
same,"Plant response rating (0 to 100), Corn",[12]; 125 g ai/ha,10
same,"Plant response rating (0 to 100), Corn",[12]; 250 g ai/ha,10
same,"Plant response rating, Corn","[12]; 31 g ai/ha, 13 to 15 days",5
same,"Plant response rating, Corn",[12]; 62 g ai/ha,5
same,"Plant response rating (0 to 100), Nutsedge, Yellow",[13]; 125 g ai/ha,5
same,"Plant response rating (0 to 100), Nutsedge, Yellow",[13]; 250 g ai/ha,5
same,"Plant response rating, Nutsedge, Yellow","[13]; 31 g ai/ha, 13 to 15 days",0
same,"Plant response rating, Nutsedge, Yellow",[13]; 62 g ai/ha,0
same,"Plant response rating (0 to 100), Barnyardgrass",[14]; 125 g ai/ha,10
same,"Plant response rating (0 to 100), Barnyardgrass",[14]; 250 g ai/ha,35
same,"Plant response rating, Barnyardgrass","[14]; 31 g ai/ha, 13 to 15 days",0
same,"Plant response rating, Barnyardgrass",[14]; 62 g ai/ha,0
same,"Plant response rating (0 to 100), Kochia",[15]; 125 g ai/ha,90
same,"Plant response rating (0 to 100), Kochia",[15]; 250 g ai/ha,90
same,"Plant response rating, Kochia","[15]; 31 g ai/ha, 13 to 15 days",80
same,"Plant response rating, Kochia",[15]; 62 g ai/ha,85
